Source: ChEMBL document CHEMBL1795331, “Synthesis and biological activity of optically active NCL-1, a lysine-specific demethylase 1 selective inhibitor” (Bioorg Med Chem, 2011)

Assays:
HeLa = assay: cells; conditions: Homo sapiens, 48 h
Description: Growth inhibition of human HeLa cells after 48 hrs by MTT assay

SH-SY5Y = assay: cells; conditions: Homo sapiens, 48 h
Description: Growth inhibition of human SH-SY5Y cells after 48 hrs by MTT assay

in vitro = conditions: human, HEK293 cells
Description: Growth inhibition of human HEK293 cells after 48 hrs by MTT assay

Structure (SMILES) | GI50 (HeLa) [µM] | GI50 (SH-SY5Y) [µM] | GI50 at 48 h (in vitro) [µM]
N[C@H]1C[C@@H]1c1cccc(OCC[C@H](NC(=O)c2ccccc2)C(=O)NCc2ccccc2)c1 | 20 | 9 | 17
N[C@@H]1C[C@H]1c1cccc(OCC[C@H](NC(=O)c2ccccc2)C(=O)NCc2ccccc2)c1 | 74 | 9 | 25
